Test results published in US7160881B2, “Crystalline modifications of 2-(3,5-bis-trifluoromethyl-phenyl)-N-[6-(1,1-dioxo-1 λ6-thiomorpholin-4-yl)-4-(4-fluoro-2-methyl-phenyl)-pyridin-3-yl]-N-methyl-isobutyramide” (Hoffmann-La Roche Inc., priority 2003, dated 2007).
Read-outs that look alike come from different tables or passages of the source.

What was measured:
[1] = Pharmacokinetics after single oral administration to fed male beagle dogs (plasma concentrations by LC-MS, non-compartmental analysis); type: in vivo; conditions: for AUC(0-t): read-out: AUC(0–24 h); for concentration at 24 h: read-out: C(24 h); for bioavailability (general statement of the description): A: formulations compared with those of B or C modification, amorphous: in microsuspension form
Method: Four male beagle dogs (age 5 to 6 years, body weight 11 to 14 kg) received single oral doses of 2 mg/kg of 2-(3,5-bis-trifluoromethyl-phenyl)-N-[6-(1,1-dioxo-1λ^6-thiomorpholin-4-yl)-4-(4-fluoro-2-methyl-phenyl)-pyridin-3-yl]-N-methyl-isobutyramide form A and form B (cross-over study design). The formulation was a granulate of the finely milled compound with 20% sodium dodecyl sulfate (SDS) in gelatine capsules.
In addition, four male beagle dogs (age 4 to 7 years, body weight 11 to 14 kg) received a single oral dose of 2 mg/kg of 2-(3,5-bis-trifluoromethyl-phenyl)-N-[6-(1,1-dioxo-1λ^6-thiomorpholin-4-yl)-4-(4-fluoro-2-methyl-phenyl)-pyridin-3-yl]-N-methyl-isobutyramide form C as finely milled compound with 10% SDS in gelatine capsules. The dogs received 200 g commercial dog chow (Pal®, approx. 7% fat content) about 30 minutes before administration of the compound.
Two dogs (age 8 years, body weight 12 to 14 kg) received 5 mg/kg of 2-(3,5-bis-trifluoromethyl-phenyl)-N-[6-(1,1-dioxo-1λ^6-thiomorpholin-4-yl)-4-(4-fluoro-2-methyl-phenyl)-pyridin-3-yl]-N-methyl-isobutyramide as amorphous material orally by gavage as microsuspension. The dogs were fed before and during the experiment.
Plasma samples were drawn at several time points. 2-(3,5-bis-Trifluoromethyl-phenyl)-N-[6-(1,1-dioxo-1λ^6-thiomorpholin-4-yl)-4-(4-fluoro-2-methyl-phenyl)-pyridin-3-yl]-N-methyl-isobutyramide plasma concentrations were determined using a selective LC-MS method with a quantification limit of 10 ng/mL. Pharmacokinetic parameters (e.g. AUC, Cmax) were estimated by non-compartmental analysis using WinNonlin 3.1®.

[2] = Dynamic Vapor Sorption (DVS); type: physicochemical; conditions: from 0 to 90% RH
Source text: Dynamic Vapor Sorption (DVS)

[3] = male, beagle, dog, plasma, po, 2 mg/kg, mean, n=4, single oral 2 mg/kg, fed male beagle dogs, finely milled compound with 10% SDS in gelatine capsules
[4] = single oral 2 mg/kg, fed male beagle dogs
[5] = dog Charly, single oral 2 mg/kg, fed male beagle dog, cross-over, granulate with 20% SDS in gelatine capsules, 2 mg/kg
[6] = dog Lars, single oral 2 mg/kg, fed male beagle dog, cross-over, granulate with 20% SDS in gelatine capsules, 2 mg/kg
[7] = dog Lupo, single oral 2 mg/kg, fed male beagle dog, cross-over, granulate with 20% SDS in gelatine capsules, 2 mg/kg
[8] = dog Mickey, single oral 2 mg/kg, fed male beagle dog, cross-over, granulate with 20% SDS in gelatine capsules, 2 mg/kg
[9] = male, beagle, dog, plasma, po, 2 mg/kg, dog Lars, single oral 2 mg/kg, fed male beagle dog, cross-over, granulate with 20% SDS in gelatine capsules
[10] = male, beagle, dog, plasma, po, 2 mg/kg, mean, n=4, single oral 2 mg/kg, fed male beagle dogs, cross-over, granulate with 20% SDS in gelatine capsules
[11] = mean, n=4, single oral 2 mg/kg, fed male beagle dogs, cross-over, granulate with 20% SDS in gelatine capsules, 2 mg/kg
[12] = single oral 2 mg/kg, fed male beagle dogs, cross-over
[13] = beagle, dog, plasma, po, 5 mg/kg, mean, n=2, single oral 5 mg/kg by gavage as microsuspension, fed dogs

SMILES: Cc1cc(F)ccc1-c1cc(N2CCS(=O)(=O)CC2)ncc1N(C)C(=O)C(C)(C)c1cc(C(F)(F)F)cc(C(F)(F)F)c1 [Form C, 2-(3,5-bis-trifluoromethyl-phenyl)-N-[6-(1,1-dioxo-1λ^6-thiomorpholin-4-yl)-4-(4-fluoro-2-methyl-phenyl)-pyridin-3-yl]-N-methyl-isobutyramide]
- AUC(0-t) [1, 3]: 2660 ng·h/mL
- concentration at 24 h [1, 3]: 29.2 ng/mL
- Cmax ([1]; male, beagle, dog, plasma, po, 2 mg/kg, mean, n=4, single oral 2 mg/kg, fed male beagle dogs, finely milled compound with 10% SDS in gelatine capsules, read-out: Cmax): 510 ng/mL
- F ([1]; mean, n=4, single oral 2 mg/kg, fed male beagle dogs, finely milled compound with 10% SDS in gelatine capsules): 13.3%
- mean AUC(0–24 h) compared with form A [1, 4]: approximately the same
- mean Cmax compared with form A [1, 4]: approximately the same

SMILES: Cc1cc(F)ccc1-c1cc(N2CCS(=O)(=O)CC2)ncc1N(C)C(=O)C(C)(C)c1cc(C(F)(F)F)cc(C(F)(F)F)c1 [Form A, 2-(3,5-bis-trifluoromethyl-phenyl)-N-[6-(1,1-dioxo-1λ^6-thiomorpholin-4-yl)-4-(4-fluoro-2-methyl-phenyl)-pyridin-3-yl]-N-methyl-isobutyramide]
- reversible uptake of water (DVS) ([2]; listed as modification A): 3.1 %-w/w
- bioavailability (general statement of the description) [1]: improved bioavailability
- bioavailability among the three crystalline polymorphs A, B, and C ([1]; beagle dogs, powder in gelatine capsules containing sodium dodecyl sulfate): highest bioavailability
- AUC(0–24 h) [1, 5]: 3720 ng·h/mL
- C(24 h) [1, 5]: 47.6 ng/mL
- Cmax [1, 5]: 391 ng/mL
- F [1, 5]: 24.5%
- F [1, 6]: 18.2%
- AUC(0–24 h) [1, 7]: 2490 ng·h/mL
- F [1, 7]: 16.2%
- AUC(0–24 h) [1, 8]: 2900 ng·h/mL
- F [1, 8]: 17.4%
- AUC(0-t) [1, 9]: 2520 ng·h/mL
- concentration at 24 h [1, 9]: 28.2 ng/mL
- Cmax ([1]; male, beagle, dog, plasma, po, 2 mg/kg, dog Lars, single oral 2 mg/kg, fed male beagle dog, cross-over, granulate with 20% SDS in gelatine capsules, read-out: Cmax): 744 ng/mL
- concentration at 24 h ([1]; male, beagle, dog, plasma, po, 2 mg/kg, dog Lupo, single oral 2 mg/kg, fed male beagle dog, cross-over, granulate with 20% SDS in gelatine capsules): 40.3 ng/mL
- Cmax ([1]; male, beagle, dog, plasma, po, 2 mg/kg, dog Lupo, single oral 2 mg/kg, fed male beagle dog, cross-over, granulate with 20% SDS in gelatine capsules, read-out: Cmax): 424 ng/mL
- concentration at 24 h ([1]; male, beagle, dog, plasma, po, 2 mg/kg, dog Mickey, single oral 2 mg/kg, fed male beagle dog, cross-over, granulate with 20% SDS in gelatine capsules): 29.8 ng/mL
- Cmax ([1]; male, beagle, dog, plasma, po, 2 mg/kg, dog Mickey, single oral 2 mg/kg, fed male beagle dog, cross-over, granulate with 20% SDS in gelatine capsules, read-out: Cmax): 496 ng/mL
- AUC(0-t) [1, 10]: 2910 ng·h/mL
- concentration at 24 h [1, 10]: 36.5 ng/mL
- Cmax ([1]; male, beagle, dog, plasma, po, 2 mg/kg, mean, n=4, single oral 2 mg/kg, fed male beagle dogs, cross-over, granulate with 20% SDS in gelatine capsules, read-out: Cmax): 514 ng/mL
- F [1, 11]: 19.1%
- Mean Cmax, higher after form A as compared to form B [1, 12]: 1.7 fold
- Mean oral bioavailability, higher after form A as compared to form B [1, 12]: 1.9 fold

SMILES: Cc1cc(F)ccc1-c1cc(N2CCS(=O)(=O)CC2)ncc1N(C)C(=O)C(C)(C)c1cc(C(F)(F)F)cc(C(F)(F)F)c1 [Form B, 2-(3,5-bis-trifluoromethyl-phenyl)-N-[6-(1,1-dioxo-1λ^6-thiomorpholin-4-yl)-4-(4-fluoro-2-methyl-phenyl)-pyridin-3-yl]-N-methyl-isobutyramide]
- AUC(0–24 h) [1, 5]: 949 ng·h/mL
- C(24 h) [1, 5]: 17.7 ng/mL
- Cmax [1, 5]: 122 ng/mL
- F [1, 5]: 6.3%
- AUC(0–24 h) [1, 6]: 3880 ng·h/mL
- C(24 h) [1, 6]: 51.7 ng/mL
- Cmax [1, 6]: 631 ng/mL
- F [1, 6]: 21%
- AUC(0–24 h) [1, 7]: 1130 ng·h/mL
- C(24 h) [1, 7]: 23.2 ng/mL
- Cmax [1, 7]: 216 ng/mL
- F [1, 7]: 6.8%
- AUC(0–24 h) [1, 8]: 1330 ng·h/mL
- C(24 h) [1, 8]: 21.4 ng/mL
- Cmax [1, 8]: 251 ng/mL
- F [1, 8]: 8.2%
- AUC(0–24 h) [1, 11]: 1822 ng·h/mL
- C(24 h) [1, 11]: 28.5 ng/mL
- Cmax [1, 11]: 305 ng/mL
- F [1, 11]: 11.0%

SMILES: Cc1cc(F)ccc1-c1cc(N2CCS(=O)(=O)CC2)ncc1N(C)C(=O)C(C)(C)c1cc(C(F)(F)F)cc(C(F)(F)F)c1 [Example 7, 2-(3,5-Bis-trifluoromethyl-phenyl)-N-[6-(1,1-dioxo-1λ^6-thiomorpholin-4-yl)-4-(4-fluoro-2-methyl-phenyl)-pyridin-3-yl]-N-methyl-isobutyramide]
- melting point: 135 to 138 °C

SMILES: Cc1cc(F)ccc1-c1cc(N2CCS(=O)(=O)CC2)ncc1N(C)C(=O)C(C)(C)c1cc(C(F)(F)F)cc(C(F)(F)F)c1 [amorphous material, 2-(3,5-bis-trifluoromethyl-phenyl)-N-[6-(1,1-dioxo-1λ^6-thiomorpholin-4-yl)-4-(4-fluoro-2-methyl-phenyl)-pyridin-3-yl]-N-methyl-isobutyramide]
- reversible uptake of water (DVS) [2]: 0.8 %-w/w
- bioavailability (general statement of the description) [1]: improved bioavailability
- exposure after oral administration (ranking of forms) ([1]; beagle dogs, amorphous as microsuspension): highest
- concentration at 24 h ([1]; beagle, dog, plasma, oral, 5 mg/kg, mean, n=2, 5 mg/kg oral microsuspension, values normalized to 2 mg/kg): 49.2 ng/mL
- AUC(0-t) ([1]; beagle, dog, plasma, po, 5 mg/kg, mean, n=2, 5 mg/kg oral microsuspension, values normalized to 2 mg/kg): 4160 ng·h/mL
- Cmax ([1]; beagle, dog, plasma, po, 5 mg/kg, mean, n=2, 5 mg/kg oral microsuspension, values normalized to 2 mg/kg, read-out: Cmax): 1220 ng/mL
- AUC(0-t) [1, 13]: 10400 ng·h/mL
- concentration at 24 h [1, 13]: 123 ng/mL
- Cmax ([1]; beagle, dog, plasma, po, 5 mg/kg, mean, n=2, single oral 5 mg/kg by gavage as microsuspension, fed dogs, read-out: Cmax): 3050 ng/mL
- F ([1]; mean, n=2, 5 mg/kg oral microsuspension, values normalized to 2 mg/kg): 24.5%
